According to patent US20160361309A1, “METHODS OF TREATING CANCER PATIENTS RESPONDING TO EZH2 INHIBITOR GSK126” (GLAXOSMITHKLINE INTELLECTUAL PROPERTY (NO.2) LIMITED, priority 2014, published 2016):

Experiments:
[1] = system: A687V EZH2 mutant SUP-B8 cell line; assay: 6-day cell proliferation assay (CellTiter-Glo), SUP-B8; type: cell-based, human
Description: (§1) FIG. 4. A687V EZH2 mutant ALL is highly dependent on EZH2 activity. A, Sensitivity of ALL cell lines to EZH2 inhibition with GSK126. Cells were treated with a 20-point 2-fold dilution series of GSK126 (range 36 μM-70 pM) for 6 days and cell growth was measured using Cell Titer-Glo (Promega). Data are represented as the concentration of GSK126 required to inhibit 50% of growth (growth IC50). B, Western blot analysis of H3K27me3, H3K27me2, H3K27me1, and total histone H3 following treatment of NALM-6 or SUP-B8 cell lines with varying concentrations of GSK126 for 72 hours.
(§2) FIG. 5. […] Temporal kinetics of GSK126-induced growth inhibition (A and C) and caspase 3/7 activation (B and D) in NALM-6 (A and B) and SUP-B8 (C and D) over a 6 day time course using Cell Titer-Glo or Caspase-Glo 3/7 (Promega), respectively.
The SUP-B8 acute lymphoblastic leukemia cell line which harbors a heterozygous A687V EZH2 mutation was kindly provided by Dr. Ronald Levy (Stanford University) and was maintained in RPMI-1640 media (MediaTech) supplemented with 10% fetal bovine serum (FBS) (Sigma-Aldrich). All other cell lines were obtained from either ATCC or DSMZ and maintained in the recommended cell culture media.
(§3) Cells were evaluated for sensitivity to GSK126 in a 6-day proliferation assay as described previously (McCabe et al., 2012b). Briefly, cells were seeded into 384 well plates at a density that permitted proliferation for 6 days. Cells were then treated in duplicate with a 20-point 2-fold dilution series of GSK126 or 0.147% DMSO. After incubation with compound for 6 days, cell proliferation was evaluated using CellTiter-Glo (Promega) according to the manufacturer's specifications. Data were fit with a 4-parameter equation to generate a concentration response curve and to determine the concentration of GSK126 required to inhibit 50% of growth (gIC50).

[2] = system: EZH2 WT cell lines (B cell ALL panel); assay: 6-day cell proliferation assay (CellTiter-Glo), EZH2 WT B cell ALL cell lines; type: cell-based; details: Homo sapiens, 144 h, 6 days, range over cell lines, read-out: growth IC50 values
Description: as §1, §3

NALM-6 cells [3] = assay: Growth inhibition time course (CellTiter-Glo), NALM-6; type: cell-based, human; details: NALM-6 (EZH2 WT), out to 6 days
Description: as §2, §3

SUP-B8 cells [4] = assay: Caspase 3/7 assay (Caspase-Glo 3/7), SUP-B8; type: cell-based, human; details: SUP-B8, beginning on day 5
Source text: as §2
(§4) For detection of caspase-3/7 activity, Caspase-Glo 3/7 (Promega) was utilized according to the manufacturer's directions. Values were normalized to CellTiter Glo (Promega) levels at each time point and expressed as a percentage of vehicle treated control.

NALM-6 cells [5] = assay: Caspase 3/7 assay (Caspase-Glo 3/7), NALM-6; type: cell-based, human; details: NALM-6 (EZH2 WT), out to 6 days
Source text: as §2, §4

H3K27me3 in SUP-B8 cells = assay: Western blot analysis of H3K27 methylation after GSK126 treatment; type: cell-based, human; details: SUP-B8 compared with the most sensitive EZH2 WT cell line NALM-6, 72 hours
Description: as §1
Cell lysate preparation and western blotting were performed as previously described (McCabe et al., 2012a). Antibodies utilized included: EZH2 (BD Transduction Labs), histone H3 (Abcam), H3K27me1 (ActiveMotif), H3K27me2 (Cell Signaling Technology), H3K27me3 (Cell Signaling Technology), EED (Santa Cruz), SUZ12 (Cell Signaling Technology), or Actin (Sigma). Histone methylation antibody specificity was previously confirmed using full-length recombinant methylated histones harboring mono-, di-, or tri-methylation at H3K4, H3K9, H3K27, H3K36, and H3K79 (McCabe et al., 2012a).

SUP-B8 cells [6] = assay: Gene expression profiling (Affymetrix U133 Plus 2.0), SUP-B8; type: cell-based, human; details: SUP-B8, 500 nM GSK126, 72 hours
Description: (§5) FIG. 6. Activation of gene expression in A687V EZH2, but not WT EZH2, cells. A, Gene expression profiling of SUP-B8 and NALM-6 cells treated for 72 hours with 0.1% DMSO or 500 nM GSK126. […] Green, lower expression. Red, higher expression.
(§6) SUP-B8 and NALM-6 cells (2×10^5/well) were seeded into six-well tissue culture plates 24 hours before treatment with 0.1% DMSO or 500 nM GSK126 for 72 hours. Cells were collected into Trizol reagent (Invitrogen) and total RNA was isolated via phenol:chloroform extraction and the RNeasy kit (Qiagen) according to the manufacturer's instructions. Total RNA was labeled and hybridized to Affymetrix Human Genome U133 Plus 2.0 oligonucleotide microarrays arrays according to the manufacturer's instructions (Affymetrix, Santa Clara, Calif., USA). CEL files were processed and differentially expressed probe sets were determined as described previously (McCabe et al., 2012b). Briefly, significant probe sets were identified after filtering for detection, an average fold-change >2 or <-2, and p-values adjusted for multiple testing correction by FDR (Benjamini Hochberg)<0.1.

NALM-6 cells [7] = assay: Gene expression profiling (Affymetrix U133 Plus 2.0), NALM-6; type: cell-based, human; details: NALM-6, 500 nM GSK126, 72 hours
Description: as §5, §6

[8] = system: Y641 and A677 EZH2 mutant DLBCL cell lines; details: many Y641 and A677 EZH2 mutant DLBCL cell lines; previously shown; cited from earlier work

With CC[C@H](C)n1cc(C)c2c(C(=O)NCc3c(C)cc(C)[nH]c3=O)cc(-c3ccc(N4CCNCC4)nc3)cc21 [GSK126] the IC50 ([1]; Homo sapiens, 144 h, SUP-B8 (heterozygous A687V EZH2), 6 days, CellTiter-Glo, read-out: dose required to inhibit 50% of cell proliferation (growth IC50)) was 441 nM, the “growth inhibition over 6 day time course” value ([1]; SUP-B8, after 4 days of treatment, maximal on day 6) was “dose-dependent growth inhibition” and the “doses at which cell number losses were evident” value ([1]; SUP-B8, day 6) was “above 100 nM”. The IC50 [2] was 2.5 to 7.8 µM, the “growth inhibition over 6 day time course” value (NALM-6 cells [3]) was “little growth inhibition” and the “caspase 3/7 activity” value (SUP-B8 cells [4]) was “increased in a dose-dependent fashion”. The “activation of caspases 3 or 7” value (NALM-6 cells [5]) was “no activation of caspases 3 or 7”, the “demethylation of H3K27me3” value (H3K27me3 in SUP-B8 cells) was “comparable, or slightly reduced, demethylation of H3K27me3” and the up-regulated probes (SUP-B8 cells [6]) was 643. For the same molecule, the down-regulated probes (NALM-6 cells [7]) was 10, the up-regulated probes (NALM-6 cells [7]) was 35 and the inhibition of proliferation [8] was “effectively inhibit the proliferation”.
